pIC50: −log10 of the molar value.
target: T1, PDK1 kinase (Homo sapiens, UniProt O15530); assay: PDK1 Bioassay (luminescence-based enzyme assay, Kinase-Glo); type: biochemical; settings: 5 μM ATP
T1 construct: 6x Histidine tag (TEV-cleavable) (cleaved yes); made in house; host or cells: Sf9 insect cells
T1 sequence (O15530 1-556): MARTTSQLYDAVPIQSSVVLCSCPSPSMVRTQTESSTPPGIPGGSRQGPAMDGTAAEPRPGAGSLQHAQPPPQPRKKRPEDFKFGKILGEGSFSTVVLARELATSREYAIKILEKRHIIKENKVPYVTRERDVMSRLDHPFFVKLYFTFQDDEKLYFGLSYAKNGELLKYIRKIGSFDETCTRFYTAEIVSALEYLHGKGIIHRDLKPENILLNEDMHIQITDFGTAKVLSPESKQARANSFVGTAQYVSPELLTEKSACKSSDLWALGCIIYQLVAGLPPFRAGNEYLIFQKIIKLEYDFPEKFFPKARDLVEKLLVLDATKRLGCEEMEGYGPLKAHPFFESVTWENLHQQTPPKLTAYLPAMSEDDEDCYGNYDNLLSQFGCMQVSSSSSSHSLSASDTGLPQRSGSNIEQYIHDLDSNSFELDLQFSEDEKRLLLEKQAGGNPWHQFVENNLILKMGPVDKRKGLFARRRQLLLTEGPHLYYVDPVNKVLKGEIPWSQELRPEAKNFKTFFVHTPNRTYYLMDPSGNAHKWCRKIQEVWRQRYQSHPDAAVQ
Source text: In addition to the c-Abl PK/LDH coupled assay (above), homogeneous luminescence-based inhibitor screening assays were developed for c-Abl, MET, AurA, and PDK1 kinases (among others). Each of these assays made use of an ATP depletion assay (Kinase-Glo™, Promega Corporation, Madison, Wis.) to quantitate kinase activity. The Kinase-Glo™ format uses a thermostable luciferase to generate luminescent signal from ATP remaining in solution following the kinase reaction. The luminescent signal is inversely correlated with the amount of kinase activity.
Materials: PDKtide peptide substrate=KTFCGTPEYLAPEVRREPRJLSEEEQEMFRDFDYIADWC (SEQ ID NO:3) (Upstate Cat#12-401), ATP (Sigma Cat#A-3377, FW=551), HEPES buffer, pH 7.5, 10% Brij 35 (Calbiochem Cat#203728), MgCl2, Staurosporine (Streptomyces sp. Sigma Cat#85660-1MG), white Costar 384-well flat-bottom plate (VWR Cat#29444-088), PDK1 kinase (see below), Kinase-Glo™ (Promega Cat#V6712).
Stock Solutions: 1 mM PDKtide substrate (1 mg in 200 μl, as supplied by Upstate), stored at −20° C.; 100 mM HEPES buffer, pH 7.5 (5 ml 1M HEPES stock+45 ml miliQH2O); 10 mM ATP (5.51 mg/ml in dH2O) stored at −20° C. (diluted 25 μl into total of 10 ml miliQH2O daily=25 μM ATP working stock); 100 mM MgCl2; 10% Brij 35 stored at 2-8° C.; 200 μM Staurosporine, 2× Kinase-Glo™ reagent (made fresh or stored at −20° C.).
Standard Assay Setup for 384-well format (20 μl kinase reaction, 40 μl detection reaction): 10 mM MgCl2; 0.01 mM PDKtide; 1 μl test compound (in DMSO); 0.1 μg/ml PDK1 kinase; 5 μM ATP; 10 mM MgCl2; 100 mM HEPES+0.01% Brij buffer. Positive controls contained DMSO with no test compound. Negative controls contained 10 μM staurosporine. The kinase reactions were initiated at time t=0 by the addition of ATP. Kinase reactions were incubated at 21° C. for 40 min, then 20 μl of Kinase-Glo™ reagent were added to each well to quench the kinase reaction and initiate the luminescence reaction. After a 20 min incubation at 21° C., the luminescence was detected in a plate-reading luminometer.
Cell pellets produced from 6 L of Sf9 insect cells expressing human PDK1 were resuspended in a buffer containing 50 mM Tris-HCl pH 7.7 and 250 mM NaCl in a volume of approximately 40 mL per 1 L of original culture. One tablet of Roche Complete, EDTA-free protease inhibitor cocktail (Cat# 1873580) and 85 units Benzonase (Novagen Cat#70746-3)) were added per 1 L of original culture. The suspension was stirred for 1 hour at 4° C. Debris was removed by centrifugation for 30 minutes at 39,800×g at 4° C. The supernatant was decanted into a 500 mL beaker and 10 ml of a 50% slurry of Qiagen Ni-NTA Agarose (Cat#30250) that had been pre-equilibrated in 50 mM Tris-HCl pH 7.8, 500 mM NaCl, 10% Glycerol, 10 mM Imidazole, and 10 mM Methionine, were added and stirred for 30 minutes at 4° C. The sample was then poured into a drip column at 4° C. and washed with 10 column volumes of 50 mM Tris-HCl pH 7.8, 500 mM NaCl, 10% Glycerol, 10 mM Imidazole, and 10 mM Methionine. The protein was eluted using a step gradient with two column volumes each of the same buffer containing 50 mM, and 500 mM Imidazole, sequentially. The 6×Histidine tag was cleaved overnight using 40 units of TEV protease (Invitrogen Cat#10127017) per 1 mg of protein while dialyzing in 50 mM Tris-HCl pH 7.8, 500 mM NaCl, 10% Glycerol, 10 mM Imidazole, and 10 mM Methionine at 4° C. The 6× Histidine tag was removed by passing the sample over a Pharmacia 5 ml IMAC column (Cat# 17-0409-01) charged with Nickel and equilibrated in 50 mM Tris-HCl pH 7.8, 500 mM NaCl, 10% Glycerol, 10 mM Imidazole, and 10 mM Methionine. The cleaved protein eluted in the flow-through, whereas the uncleaved protein and the His-tag remained bound to the Ni-column. The cleaved protein fractions were combined and concentrated using spin concentrators. […]

`Oc1cccc(-c2cnc3[nH]cc(-c4ccc(O)c(F)c4)c3c2)c1` [AE48] was tested. Which pIC50 did it give?
The pIC50 was 5.30 to 6.00.

With `CNC(=O)c1cc(-c2cnc3[nH]cc(-c4ccccc4OC)c3c2)cs1` [AE2] as the compound, how does the pIC50 read?
Its pIC50 is 5.30 to 6.00.

With `COc1ccccc1-c1c[nH]c2ncc(-c3ccc4[nH]cc(CC(=O)O)c4c3)cc12` [AE10] as the compound, how does the pIC50 read?
Its pIC50 is 5.30 to 6.00.

`COc1ccccc1-c1c[nH]c2ncc(-c3cc[nH]c(=O)c3)cc12` [AE9] was tested. Which pIC50 did it give?
The pIC50 was 5.30 to 6.00.

How did the pIC50 turn out when `N#Cc1cc(-c2cnc3[nH]cc(-c4ccc5[nH]ccc5c4)c3c2)ccc1O` [AE20] was run?
The pIC50 was 5.30 to 6.00.

How did the pIC50 turn out when `COc1ccccc1-c1c[nH]c2ncc(-c3ccc(S(N)(=O)=O)s3)cc12` [AE11] was run?
The pIC50 was 5.30 to 6.00.

`COc1ccccc1-c1c[nH]c2ncc(-c3ccc(S(N)(=O)=O)cc3)cc12` [AE21] was tested. Which pIC50 did it give?
Its pIC50 is 5.30 to 6.00.

With `COc1ccccc1-c1c[nH]c2ncc(-c3csc(C(=O)N(C)C)c3)cc12` [AE3] as the compound, how does the pIC50 read?
Its pIC50 is 5.30 to 6.00.

With `COc1cc(-c2cnc3[nH]cc(-c4ccc(O)cc4)c3c2)ccc1O` [AE58] as the compound, how does the pIC50 read?
Its pIC50 is > 6.00.

With `Nc1nc(-c2c[nH]c3ncc(-c4ccc5[nH]ccc5c4)cc23)cs1` [AE55] as the compound, how does the pIC50 read?
The pIC50 was > 6.00.

With `COc1cc(-c2cnc3[nH]cc(-c4ccccc4OC)c3c2)ccc1O` [AE64] as the compound, how does the pIC50 read?
The pIC50 was 5.30 to 6.00.

`Oc1cccc(-c2cnc3[nH]cc(-c4ccn[nH]4)c3c2)c1` [AE49] was tested. Which pIC50 did it give?
The pIC50 was 5.30 to 6.00.

Reference: patent publication US7709645B2, “Pyrrolo-pyridine kinase modulators” (SGX Pharmaceuticals, Inc., priority 2004, dated 2010)
